In PMC7934871 (JCI Insight, 2021):

Columns and labels:
[1] = Systemic toxicity in mice; type: in vivo; conditions: 1 mg/kg i.v. every other day for 3 weeks, n = 3
Description: To evaluate the potential toxicity associated with systemic treatments of PS-peptide, PS-acet.-STAT3 peptide, PS-oligo, naive peptide, and PO- or PS-acet.-STAT3 peptide were given to the mice at 1 mg/kg through i.v. every other day for 3 weeks.
Supplemental Figure 10 (related to Figure 3). The systemic toxicity of PS-acet.-peptide.
The bodyweight (A), blood count (B) and organ morphology (H&E staining; spleen, kidney and liver) (C) of the mice (n=3) treated with HBSS (1), PS-oligo (2), naïve peptide (3), PO-peptide (4) or PS-peptide (5) every other day at 1 mg/kg (per treatment) for 3 weeks.
Individual value of each mouse is shown as a dot on the graph. The red lines on each graph in (B) indicate the normal ranges. Blood count was done by a veterinary hematology analyzer. The images shown in (C) are the represented H&E section from three mice (n=3). Enlarged view are shown below as indicated. Scale bar, 50 µm.
Aftabizadeh and Li et al., Figure S10

[2] = biological target: T1, STAT3-exportin 7 interaction (Homo sapiens, UniProt Q9UIA9); assay: Immunoprecipitation from HCT116 tumor homogenates, STAT3-exportin 7 interaction; type: binding; conditions: homogenates of HCT116 tumors from treated mice, Western blotting
T1 construct: homogenates prepared from HCT116 colon tumors from mice treated with PO- and PS-acet.-STAT3 peptides; from tissue; host or cells: HCT116 xenograft tumours grown in NSG mice
Description: Whole cell lysates or tissue homogenates were prepared by using RIPA lysis buffer (50 mM Tris at pH 7.4, 150 mM NaCl, 1 mM EDTA, 0.5% NP-40, 1 mM NaF, 15% glycerol, and 20 mM β-glycerophosphate). A protease inhibitor cocktail (Mini Protease Inhibitor Cocktail; Roche) and a tyrosine phosphatase inhibitor, sodium orthovanadate (Na3VO4, 1 mM), were added freshly to the lysis buffer. Protein amounts were determined by BCA using a Thermo Fisher Scientific kit. Normalized protein amounts were subjected to an SDS-PAGE and transferred onto a nitrocellulose membrane for Western blotting. Proteins were visualized with a chemiluminescent detection kit (Pierce, Thermo Fisher Scientific). The protein levels for STAT1 (sc-346, E-23), STAT3 (sc-482, C-20), STAT5 (sc-74442, A-9), Crm1 (exportin 1) (sc-5595, H-300), CAS (exportin 2) (sc-271537, H-2), exportin 5 (sc-66885, H-300), and exportin 7 (sc-98639, H-82) were determined using antibodies from Santa Cruz Biotechnology Inc. Anti–exportin 3 (exportin T, 630622, LOS1 05-1525), anti–exportin 4 (3499-1), and anti–exportin 6 (11408-1-AP) were from MilliporeSigma, Epitomics, and Proteintech, respectively. […]
(B) PS-acet.-STAT3 peptide downregulates STAT3 phosphorylation, assessed by Western blotting using tumor homogenates prepared from tumors shown in A. […]

STAT5 = assay: Immunoprecipitation and Western blotting, STAT5; type: binding, human; conditions: immunoprecipitation, Western blotting, U251 cells
Description: Figure 2 PS-acet.-STAT3-peptide specifically binds STAT3 in the nucleus. (A) Penetration of PS-acet.-STAT3 peptide and its colocalization with STAT3 protein in U251 cells are confirmed by confocal microscopy. Scale bars: 50 μm. Insets: original magnification, ×40. (B) PS-acet.-STAT3 peptide specifically binds to STAT3 protein, not STAT1 and STAT5 proteins, shown in U251 cells by immunoprecipitation followed by Western blotting (left panel). Expression of total STAT1, STAT3, and STAT5 was confirmed by Western blotting in U251 cells (input protein level, right panel).
Whole cell lysates or tissue homogenates were prepared by using RIPA lysis buffer (50 mM Tris at pH 7.4, 150 mM NaCl, 1 mM EDTA, 0.5% NP-40, 1 mM NaF, 15% glycerol, and 20 mM β-glycerophosphate). […] Protein amounts were determined by BCA using a Thermo Fisher Scientific kit. […] The protein levels for STAT1 (sc-346, E-23), STAT3 (sc-482, C-20), STAT5 (sc-74442, A-9), Crm1 (exportin 1) (sc-5595, H-300), CAS (exportin 2) (sc-271537, H-2), exportin 5 (sc-66885, H-300), and exportin 7 (sc-98639, H-82) were determined using antibodies from Santa Cruz Biotechnology Inc. Anti–exportin 3 (exportin T, 630622, LOS1 05-1525), anti–exportin 4 (3499-1), and anti–exportin 6 (11408-1-AP) were from MilliporeSigma, Epitomics, and Proteintech, respectively. […]

T1 sequence (Q9UIA9 2-1087 limits assumed): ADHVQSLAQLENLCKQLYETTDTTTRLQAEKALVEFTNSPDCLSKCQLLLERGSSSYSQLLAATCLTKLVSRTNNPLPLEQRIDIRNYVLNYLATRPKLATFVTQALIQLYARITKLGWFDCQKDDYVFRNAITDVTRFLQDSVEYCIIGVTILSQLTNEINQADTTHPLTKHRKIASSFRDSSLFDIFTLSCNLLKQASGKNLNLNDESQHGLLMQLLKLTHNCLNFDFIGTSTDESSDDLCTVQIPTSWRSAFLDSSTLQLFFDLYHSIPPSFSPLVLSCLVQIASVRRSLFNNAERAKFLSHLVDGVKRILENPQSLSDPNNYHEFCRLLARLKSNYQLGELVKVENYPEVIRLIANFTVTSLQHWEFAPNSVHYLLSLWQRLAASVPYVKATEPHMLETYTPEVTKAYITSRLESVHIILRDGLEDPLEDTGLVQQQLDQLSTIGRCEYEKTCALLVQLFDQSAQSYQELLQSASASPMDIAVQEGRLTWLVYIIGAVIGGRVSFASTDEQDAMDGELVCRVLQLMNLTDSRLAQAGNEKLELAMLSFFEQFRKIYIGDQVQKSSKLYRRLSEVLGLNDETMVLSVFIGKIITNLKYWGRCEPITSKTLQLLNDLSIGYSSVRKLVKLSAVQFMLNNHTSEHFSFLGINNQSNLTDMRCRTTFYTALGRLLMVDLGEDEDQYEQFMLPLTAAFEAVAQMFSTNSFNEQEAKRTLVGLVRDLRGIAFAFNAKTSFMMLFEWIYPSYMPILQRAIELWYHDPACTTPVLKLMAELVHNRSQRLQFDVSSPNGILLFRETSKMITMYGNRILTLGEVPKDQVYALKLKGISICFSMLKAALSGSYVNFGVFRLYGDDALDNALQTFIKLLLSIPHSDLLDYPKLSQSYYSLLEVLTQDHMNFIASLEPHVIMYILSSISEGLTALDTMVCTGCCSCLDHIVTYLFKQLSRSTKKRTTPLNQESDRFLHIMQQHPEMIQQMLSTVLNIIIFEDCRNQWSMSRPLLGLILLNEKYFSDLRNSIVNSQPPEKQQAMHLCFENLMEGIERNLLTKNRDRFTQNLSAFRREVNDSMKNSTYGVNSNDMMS

PDIPKEEAFGK685(Ac)YCRPESQEHPC-linker-T*C*C*A*T*G*A*G*C*T*T*C*C*T*G*A*T*G*C*T [PS-acet.-STAT3 peptide]
behavior, body weight, blood counts [1]: No behavior changes, body weight loss, or abnormal blood counts
morphology and cell death in liver, spleen, kidney tissues (H&E) [1]: no significant morphology change or cell death
STAT3 binding to exportin 7 in tumor tissues [2]: blocked
binding to exportin 7 in tumor tissues [2]: bound
binding to STAT5 protein (STAT5): not
